Counter-ions that a name gives are not always drawn.
How the values were obtained:
Type in all cases: biochemical
[1] = target: AICART (Homo sapiens, UniProt P31939); assay: AICART inhibition (similar tests); conditions: read-out: IC50 against AICART
Excerpt: (§1) The above data illustrates the selectivity of the novel antifolates in enzyme inhibition. […] As previously noted, such selectivity in activity can be useful for improving activity against specific conditions while avoiding undesirable side effects.

[2] = target: T1, GARFT (Homo sapiens, UniProt P22102); assay: GARFT inhibition (similar tests); conditions: read-out: IC50 against GARFT
T1 sequence (P22102 1-1010): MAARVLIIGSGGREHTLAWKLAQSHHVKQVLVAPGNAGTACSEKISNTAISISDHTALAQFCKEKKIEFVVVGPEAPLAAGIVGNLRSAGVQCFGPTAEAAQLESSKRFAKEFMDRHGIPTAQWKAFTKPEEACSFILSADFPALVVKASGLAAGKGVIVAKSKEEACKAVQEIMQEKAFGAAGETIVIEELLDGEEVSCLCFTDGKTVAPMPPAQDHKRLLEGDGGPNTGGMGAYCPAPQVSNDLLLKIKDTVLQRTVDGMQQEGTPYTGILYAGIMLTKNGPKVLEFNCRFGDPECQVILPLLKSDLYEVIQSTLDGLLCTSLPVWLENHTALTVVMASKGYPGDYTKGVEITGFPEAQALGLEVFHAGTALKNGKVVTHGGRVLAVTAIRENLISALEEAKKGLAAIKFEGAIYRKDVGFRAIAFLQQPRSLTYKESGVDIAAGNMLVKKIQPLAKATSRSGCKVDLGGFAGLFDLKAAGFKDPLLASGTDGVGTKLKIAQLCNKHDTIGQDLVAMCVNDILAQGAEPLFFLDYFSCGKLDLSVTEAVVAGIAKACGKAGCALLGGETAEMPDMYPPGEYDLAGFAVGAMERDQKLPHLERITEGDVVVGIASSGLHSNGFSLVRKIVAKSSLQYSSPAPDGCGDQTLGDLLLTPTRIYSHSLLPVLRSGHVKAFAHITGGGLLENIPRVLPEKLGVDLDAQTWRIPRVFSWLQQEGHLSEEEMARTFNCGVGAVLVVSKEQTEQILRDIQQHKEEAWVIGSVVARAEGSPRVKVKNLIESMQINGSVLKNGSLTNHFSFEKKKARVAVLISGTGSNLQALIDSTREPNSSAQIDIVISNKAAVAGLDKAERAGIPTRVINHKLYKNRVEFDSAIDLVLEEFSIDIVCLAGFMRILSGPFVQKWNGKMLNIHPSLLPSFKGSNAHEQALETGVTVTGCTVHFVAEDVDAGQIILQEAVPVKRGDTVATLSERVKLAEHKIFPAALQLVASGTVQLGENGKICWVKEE
Excerpt: as §1

[3] = target: T2, DHFR in CCRF-CEM human leukemia cells (Homo sapiens, UniProt P00374); assay: DHFR enzyme inhibition assay; conditions: DHFR from CCRF-CEM cells, pre-incubation with NADPH 3 minutes at 37° C.
T2 construct: endogenous in cells; host or cells: CCRF-CEM
T2 sequence (P00374 1-187): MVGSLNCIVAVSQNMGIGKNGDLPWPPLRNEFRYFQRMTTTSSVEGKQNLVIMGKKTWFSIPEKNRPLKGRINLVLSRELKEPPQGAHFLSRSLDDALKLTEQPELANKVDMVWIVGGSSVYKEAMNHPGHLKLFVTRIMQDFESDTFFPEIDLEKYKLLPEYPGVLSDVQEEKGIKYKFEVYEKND

[4] = target: T3, TS in CCRF-CEM human T-lymphoblastic leukemia cells (Homo sapiens, UniProt P04818); assay: TS enzyme inhibition assay; conditions: TS from CCRF-CEM cells, up to five graded concentrations; read-out: IC50 against TS
T3 construct: endogenous in cells; host or cells: CCRF-CEM
T3 sequence (P04818 whole entry): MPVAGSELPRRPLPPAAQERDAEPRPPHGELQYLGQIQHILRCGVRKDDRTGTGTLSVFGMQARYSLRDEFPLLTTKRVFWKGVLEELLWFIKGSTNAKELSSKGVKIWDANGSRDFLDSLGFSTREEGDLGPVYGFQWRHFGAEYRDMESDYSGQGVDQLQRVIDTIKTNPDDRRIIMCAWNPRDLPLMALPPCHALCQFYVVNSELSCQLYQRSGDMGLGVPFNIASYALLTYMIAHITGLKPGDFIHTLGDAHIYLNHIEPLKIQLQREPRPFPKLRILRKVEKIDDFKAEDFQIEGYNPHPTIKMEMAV
Method: The inhibitory potency against TS in CCRF-CEM human T-lymphoblastic leukemia cells was assessed by introducing up to five graded concentrations of compounds into the reaction mixture, initiating the reaction by addition of TS, and quantitating remaining TS activity.

Chain of AICART (P31939 whole entry): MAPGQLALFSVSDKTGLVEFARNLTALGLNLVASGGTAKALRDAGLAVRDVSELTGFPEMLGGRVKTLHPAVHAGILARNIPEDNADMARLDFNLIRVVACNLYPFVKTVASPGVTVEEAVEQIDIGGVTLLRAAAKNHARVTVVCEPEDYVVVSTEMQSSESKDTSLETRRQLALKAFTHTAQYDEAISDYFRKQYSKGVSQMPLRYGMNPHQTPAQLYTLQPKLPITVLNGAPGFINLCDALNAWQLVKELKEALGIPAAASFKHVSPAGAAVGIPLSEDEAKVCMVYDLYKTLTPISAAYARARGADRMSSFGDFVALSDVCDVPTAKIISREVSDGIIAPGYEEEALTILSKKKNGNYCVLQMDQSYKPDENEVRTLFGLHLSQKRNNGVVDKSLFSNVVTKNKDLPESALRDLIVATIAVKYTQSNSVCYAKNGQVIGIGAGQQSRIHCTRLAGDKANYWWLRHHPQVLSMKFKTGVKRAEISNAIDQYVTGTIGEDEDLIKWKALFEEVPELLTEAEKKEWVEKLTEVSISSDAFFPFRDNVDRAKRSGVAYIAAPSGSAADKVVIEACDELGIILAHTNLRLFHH

Row | SMILES | IC50 [1] | IC50 [2] | IC50 [3] | IC50 [4]
1 | C=C(CC(NC(=O)c1ccc(CCc2c[nH]c3nc(N)nc(N)c23)cc1)C(=O)O)C(=O)O (racemic) [CHL-003, N-{4-[2-(2,4-diamino-7H-pyrrolo[2,3-d]pyrimidin-5-yl)ethyl]benzoyl}-4-methylene-glutamic acid] | > 50 µM | > 50 µM | 0.0125 µM | > 50 µM
2 | C=C(C[C@H](NC(=O)c1ccc(CCc2c[nH]c3nc(N)nc(N)c23)cc1)C(=O)O)C(=O)O [CHL1007, (S)-N-{4-[2-(2,4-diamino-7H-pyrrolo[2,3-d]pyrimidin-5-yl)ethyl]benzoyl}-4-methylene-L-glutamic acid disodium salt] |  |  | 0.0052 µM | 
3 | C=C(CC(NC(=O)c1ccc(CCc2ccc3nc(N)nc(N)c3c2)cc1)C(=O)O)C(=O)O (stereo not shown) [Mobiltrex, 2-{4-[2-(2,4-diamino-quinazolin-6-yl)-ethyl] -benzoylamino}-4-methylidene-pentanedioic acid, reference compound] |  |  | 0.0011 µM | 8 µM

Reference: patent publication US7951812B2, “Substituted pyrrolo[2,3-d]pyrimidines as antifolates” (Chelsea Therapeutics, Inc., priority 2007, dated 2011)
